# Assay results from the kinase profiling compilation of Christmann-Franck et al. (2016).
# Experiments:
# Test in all cases: radiometric filter-binding kinase assay
# AURKB (human) = AURKB (human) (UniProt Q96GD4)
# BRSK1 (human) = BRSK1 (human) (UniProt Q8TDC3)
# BTK (human) = BTK (human) (UniProt Q06187)
# CAMKK2 (human) = CAMKK2 (human) (UniProt Q96RR4)
# CSK (human) = CSK (human) (UniProt P41240)
# CSNK1D (human) = CSNK1D (human) (UniProt P48730)
# CaMK1 (human) = CaMK1 (human) (UniProt Q14012)
# DYRK1A (human) = DYRK1A (human) (UniProt Q13627)
# DYRK2 (human) = DYRK2 (human) (UniProt Q92630)
# EPHB3 (human) = EPHB3 (human) (UniProt P54753)
# HIPK2 (human) = HIPK2 (human) (UniProt Q9H2X6)
# IGF1R (human) = IGF1R (human) (UniProt P08069)
# IKBKB (human) = IKBKB (human) (UniProt O14920)
# IKBKE (human) = IKBKE (human) (UniProt Q14164)
# MAP3K11 (human) = MAP3K11 (human) (UniProt Q16584)
# MAPK12 (human) = MAPK12 (human) (UniProt P53778)
# MAPK14 (human) = MAPK14 (human) (UniProt Q16539)
# MAPK15 (human) = MAPK15 (human) (UniProt Q8TD08)
# MAPK8 (human) = MAPK8 (human) (UniProt P45983)
# MAPK9 (human) = MAPK9 (human) (UniProt P45984)
# MAPKAPK2 (human) = MAPKAPK2 (human) (UniProt P49137)
# MAPKAPK5 (human) = MAPKAPK5 (human) (UniProt Q8IW41)
# MELK (human) = MELK (human) (UniProt Q14680)
# MINK1 (human) = MINK1 (human) (UniProt Q8N4C8)
# MKNK2 (human) = MKNK2 (human) (UniProt Q9HBH9)
# PAK4 (human) = PAK4 (human) (UniProt O96013)
# PAK7 (human) = PAK7 (human) (UniProt Q9P286)
# PIM1 (human) = PIM1 (human) (UniProt P11309)
# PRKACA (human) = PRKACA (human) (UniProt P17612)
# RIPK2 (human) = RIPK2 (human) (UniProt O43353)
# YES1 (human) = YES1 (human) (UniProt P07947)
# EPHA4 (human) = EPHA4 (human) (UniProt P54764)
# EPHB2 (human) = EPHB2 (human) (UniProt P29323)
# MAP3K7 TAB1 (human) = MAP3K7 TAB1 (human) (UniProt Q15750+O43318)
# Sequence of BRSK1 (human) (Q8TDC3 whole entry, looked up): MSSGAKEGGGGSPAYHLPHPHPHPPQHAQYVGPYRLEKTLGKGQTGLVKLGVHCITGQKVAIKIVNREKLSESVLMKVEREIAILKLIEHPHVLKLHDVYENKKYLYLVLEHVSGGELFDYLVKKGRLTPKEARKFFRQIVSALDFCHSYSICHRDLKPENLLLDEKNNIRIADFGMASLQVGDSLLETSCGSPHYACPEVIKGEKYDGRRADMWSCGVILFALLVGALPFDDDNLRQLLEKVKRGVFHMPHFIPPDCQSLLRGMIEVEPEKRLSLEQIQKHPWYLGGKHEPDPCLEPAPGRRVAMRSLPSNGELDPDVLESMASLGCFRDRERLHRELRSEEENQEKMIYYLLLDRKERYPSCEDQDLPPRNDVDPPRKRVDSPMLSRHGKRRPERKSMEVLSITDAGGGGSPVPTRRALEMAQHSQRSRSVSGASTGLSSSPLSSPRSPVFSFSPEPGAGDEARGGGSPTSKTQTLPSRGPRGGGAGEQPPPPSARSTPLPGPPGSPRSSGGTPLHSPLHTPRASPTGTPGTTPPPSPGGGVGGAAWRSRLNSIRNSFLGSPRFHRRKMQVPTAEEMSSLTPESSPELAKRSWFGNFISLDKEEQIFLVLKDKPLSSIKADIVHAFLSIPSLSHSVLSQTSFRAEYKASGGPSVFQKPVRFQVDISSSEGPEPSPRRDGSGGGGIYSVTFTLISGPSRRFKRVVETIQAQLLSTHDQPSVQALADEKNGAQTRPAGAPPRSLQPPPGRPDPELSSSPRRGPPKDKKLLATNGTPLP
# Sequence of MAPK12 (human) (P53778 whole entry, looked up): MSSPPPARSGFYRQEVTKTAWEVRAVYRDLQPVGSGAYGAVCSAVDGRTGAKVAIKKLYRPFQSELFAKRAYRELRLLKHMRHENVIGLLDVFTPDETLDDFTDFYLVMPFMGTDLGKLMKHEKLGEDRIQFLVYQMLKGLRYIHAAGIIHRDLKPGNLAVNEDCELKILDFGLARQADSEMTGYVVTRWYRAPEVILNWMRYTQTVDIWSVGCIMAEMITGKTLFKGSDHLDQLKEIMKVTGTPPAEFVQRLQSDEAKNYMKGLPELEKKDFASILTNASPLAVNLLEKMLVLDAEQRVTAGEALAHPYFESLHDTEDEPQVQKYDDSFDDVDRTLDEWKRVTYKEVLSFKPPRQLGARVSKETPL
# Sequence of IKBKB (human) (O14920 whole entry, looked up): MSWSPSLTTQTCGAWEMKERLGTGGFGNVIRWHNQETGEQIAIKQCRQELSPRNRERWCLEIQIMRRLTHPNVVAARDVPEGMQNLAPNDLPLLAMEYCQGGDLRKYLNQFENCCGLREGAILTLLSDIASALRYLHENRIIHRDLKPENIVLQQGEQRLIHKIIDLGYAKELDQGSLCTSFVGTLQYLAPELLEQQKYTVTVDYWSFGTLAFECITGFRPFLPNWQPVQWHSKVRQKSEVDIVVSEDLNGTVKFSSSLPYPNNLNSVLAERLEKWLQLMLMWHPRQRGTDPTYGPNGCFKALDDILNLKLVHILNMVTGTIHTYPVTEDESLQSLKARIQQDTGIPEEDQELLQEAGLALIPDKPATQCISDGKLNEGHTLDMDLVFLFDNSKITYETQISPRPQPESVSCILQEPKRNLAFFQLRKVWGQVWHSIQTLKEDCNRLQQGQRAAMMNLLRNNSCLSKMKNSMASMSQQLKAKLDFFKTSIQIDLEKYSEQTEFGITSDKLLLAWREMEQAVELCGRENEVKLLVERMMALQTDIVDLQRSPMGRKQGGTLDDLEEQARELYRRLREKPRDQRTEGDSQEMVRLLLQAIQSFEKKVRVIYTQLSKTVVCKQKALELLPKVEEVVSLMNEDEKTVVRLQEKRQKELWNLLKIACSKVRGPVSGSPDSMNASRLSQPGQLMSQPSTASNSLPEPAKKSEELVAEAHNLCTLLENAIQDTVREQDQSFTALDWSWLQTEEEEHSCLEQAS
# Sequence of PAK4 (human) (O96013 whole entry, looked up): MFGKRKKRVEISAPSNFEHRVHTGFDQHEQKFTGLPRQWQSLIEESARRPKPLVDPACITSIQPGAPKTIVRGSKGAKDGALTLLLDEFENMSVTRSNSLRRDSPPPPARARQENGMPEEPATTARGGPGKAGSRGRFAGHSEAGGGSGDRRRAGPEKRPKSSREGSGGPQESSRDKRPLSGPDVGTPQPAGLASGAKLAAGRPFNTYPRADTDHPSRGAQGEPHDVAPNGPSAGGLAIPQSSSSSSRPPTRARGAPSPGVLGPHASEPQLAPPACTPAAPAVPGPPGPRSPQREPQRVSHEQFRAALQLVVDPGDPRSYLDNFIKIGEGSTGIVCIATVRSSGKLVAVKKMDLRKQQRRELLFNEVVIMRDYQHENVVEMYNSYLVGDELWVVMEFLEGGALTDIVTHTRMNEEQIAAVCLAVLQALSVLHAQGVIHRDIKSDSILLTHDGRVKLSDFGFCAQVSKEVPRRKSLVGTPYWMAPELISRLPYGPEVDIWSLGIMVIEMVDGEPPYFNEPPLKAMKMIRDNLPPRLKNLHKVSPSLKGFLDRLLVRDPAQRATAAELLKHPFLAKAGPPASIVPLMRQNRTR
# Sequence of MAPK8 (human) (P45983 whole entry, looked up): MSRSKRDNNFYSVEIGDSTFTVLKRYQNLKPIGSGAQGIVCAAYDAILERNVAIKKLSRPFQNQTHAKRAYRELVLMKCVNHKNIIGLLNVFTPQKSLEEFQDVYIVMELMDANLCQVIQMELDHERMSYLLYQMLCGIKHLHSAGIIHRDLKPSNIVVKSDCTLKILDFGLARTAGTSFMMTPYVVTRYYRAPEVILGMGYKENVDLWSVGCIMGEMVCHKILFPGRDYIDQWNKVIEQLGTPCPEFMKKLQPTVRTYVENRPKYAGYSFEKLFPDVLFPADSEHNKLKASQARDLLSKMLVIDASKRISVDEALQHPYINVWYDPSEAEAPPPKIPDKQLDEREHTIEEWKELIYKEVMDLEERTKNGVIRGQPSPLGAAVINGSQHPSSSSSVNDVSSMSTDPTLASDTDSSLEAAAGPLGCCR
# Sequence of MINK1 (human) (Q8N4C8 whole entry, looked up): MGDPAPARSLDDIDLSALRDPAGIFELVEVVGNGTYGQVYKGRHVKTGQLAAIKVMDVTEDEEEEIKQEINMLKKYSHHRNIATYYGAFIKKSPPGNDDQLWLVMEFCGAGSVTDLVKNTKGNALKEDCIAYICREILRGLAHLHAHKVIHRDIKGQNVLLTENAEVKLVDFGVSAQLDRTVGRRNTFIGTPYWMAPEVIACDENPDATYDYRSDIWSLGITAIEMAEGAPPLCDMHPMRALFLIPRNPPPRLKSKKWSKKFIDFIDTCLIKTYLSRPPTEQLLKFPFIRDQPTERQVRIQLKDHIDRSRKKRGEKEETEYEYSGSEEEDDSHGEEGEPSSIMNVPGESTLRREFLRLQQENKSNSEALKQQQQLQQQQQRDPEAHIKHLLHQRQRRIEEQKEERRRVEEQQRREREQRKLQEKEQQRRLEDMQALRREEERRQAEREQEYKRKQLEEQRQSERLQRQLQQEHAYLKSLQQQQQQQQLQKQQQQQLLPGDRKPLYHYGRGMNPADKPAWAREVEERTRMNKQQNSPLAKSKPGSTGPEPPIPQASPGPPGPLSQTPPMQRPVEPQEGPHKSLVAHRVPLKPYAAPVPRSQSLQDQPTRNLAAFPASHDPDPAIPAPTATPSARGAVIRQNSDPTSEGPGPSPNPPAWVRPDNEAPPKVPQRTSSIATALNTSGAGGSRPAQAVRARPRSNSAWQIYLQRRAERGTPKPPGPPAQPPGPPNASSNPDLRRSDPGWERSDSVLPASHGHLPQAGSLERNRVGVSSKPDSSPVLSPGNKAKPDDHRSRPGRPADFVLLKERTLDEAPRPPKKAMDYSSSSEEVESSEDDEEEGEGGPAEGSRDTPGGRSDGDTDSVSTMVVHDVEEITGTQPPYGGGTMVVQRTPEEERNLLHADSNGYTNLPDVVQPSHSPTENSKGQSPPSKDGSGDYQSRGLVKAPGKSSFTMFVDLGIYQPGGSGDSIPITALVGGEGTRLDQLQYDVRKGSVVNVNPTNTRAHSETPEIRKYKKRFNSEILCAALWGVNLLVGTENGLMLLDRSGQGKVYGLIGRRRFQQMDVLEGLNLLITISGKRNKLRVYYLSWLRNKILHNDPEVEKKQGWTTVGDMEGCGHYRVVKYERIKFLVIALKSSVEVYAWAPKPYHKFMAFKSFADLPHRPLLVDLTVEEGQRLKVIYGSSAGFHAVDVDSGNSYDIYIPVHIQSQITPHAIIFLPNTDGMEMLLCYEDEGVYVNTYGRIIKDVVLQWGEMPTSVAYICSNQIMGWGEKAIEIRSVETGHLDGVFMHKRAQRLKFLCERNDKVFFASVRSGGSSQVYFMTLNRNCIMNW
# Sequence of YES1 (human) (P07947 whole entry, looked up): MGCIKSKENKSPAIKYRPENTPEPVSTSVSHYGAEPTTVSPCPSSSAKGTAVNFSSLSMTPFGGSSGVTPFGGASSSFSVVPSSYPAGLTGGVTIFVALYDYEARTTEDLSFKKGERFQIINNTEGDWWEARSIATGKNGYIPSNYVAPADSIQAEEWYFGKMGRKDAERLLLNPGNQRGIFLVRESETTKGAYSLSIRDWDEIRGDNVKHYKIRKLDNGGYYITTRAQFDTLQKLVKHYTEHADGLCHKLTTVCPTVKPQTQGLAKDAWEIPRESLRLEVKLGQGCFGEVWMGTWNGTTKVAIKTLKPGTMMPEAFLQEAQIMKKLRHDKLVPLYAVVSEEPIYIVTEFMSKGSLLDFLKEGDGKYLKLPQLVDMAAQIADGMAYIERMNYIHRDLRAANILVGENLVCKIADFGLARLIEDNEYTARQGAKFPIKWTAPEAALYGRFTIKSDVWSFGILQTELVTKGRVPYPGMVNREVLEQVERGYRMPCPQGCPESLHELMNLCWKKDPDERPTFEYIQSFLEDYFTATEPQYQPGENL
smiles,measurement,setting,value
O=C(O)c1cc(N=Nc2ccc(S(=O)(=O)Nc3ccccn3)cc2)ccc1O,residual activity,AURKB (human); compound 1.0 µM,104%
same,residual activity,AURKB (human); compound 10.0 µM,105%
same,residual activity,BRSK1 (human); compound 1.0 µM,97%
same,residual activity,BRSK1 (human); compound 10.0 µM,92%
same,residual activity,BTK (human); compound 1.0 µM,97%
same,residual activity,BTK (human); compound 10.0 µM,74%
same,residual activity,CAMKK2 (human); compound 1.0 µM,127%
same,residual activity,CAMKK2 (human); compound 10.0 µM,122%
same,residual activity,CSK (human); compound 1.0 µM,119%
same,residual activity,CSK (human); compound 10.0 µM,119%
same,residual activity,CSNK1D (human); compound 1.0 µM,103%
same,residual activity,CSNK1D (human); compound 10.0 µM,95%
same,residual activity,CaMK1 (human); compound 1.0 µM,97%
same,residual activity,CaMK1 (human); compound 10.0 µM,91%
same,residual activity,DYRK1A (human); compound 1.0 µM,94%
same,residual activity,DYRK1A (human); compound 10.0 µM,85%
same,residual activity,DYRK2 (human); compound 1.0 µM,99%
same,residual activity,DYRK2 (human); compound 10.0 µM,79%
same,residual activity,EPHB3 (human); compound 1.0 µM,102%
same,residual activity,EPHB3 (human); compound 10.0 µM,118%
same,residual activity,HIPK2 (human); compound 10.0 µM,94%
same,residual activity,IGF1R (human); compound 1.0 µM,111%
same,residual activity,IGF1R (human); compound 10.0 µM,98%
same,residual activity,IKBKB (human); compound 1.0 µM,107%
same,residual activity,IKBKB (human); compound 10.0 µM,89%
same,residual activity,IKBKE (human); compound 1.0 µM,92%
same,residual activity,IKBKE (human); compound 10.0 µM,112%
same,residual activity,MAP3K11 (human); compound 10.0 µM,71%
same,residual activity,MAPK12 (human); compound 1.0 µM,97%
same,residual activity,MAPK12 (human); compound 10.0 µM,100%
same,residual activity,MAPK14 (human); compound 1.0 µM,105%
same,residual activity,MAPK14 (human); compound 10.0 µM,101%
same,residual activity,MAPK15 (human); compound 1.0 µM,111%
same,residual activity,MAPK15 (human); compound 10.0 µM,109%
same,residual activity,MAPK8 (human); compound 1.0 µM,96%
same,residual activity,MAPK8 (human); compound 10.0 µM,96%
same,residual activity,MAPK9 (human); compound 1.0 µM,128%
same,residual activity,MAPK9 (human); compound 10.0 µM,117%
same,residual activity,MAPKAPK2 (human); compound 1.0 µM,100%
same,residual activity,MAPKAPK2 (human); compound 10.0 µM,106%
same,residual activity,MAPKAPK5 (human); compound 1.0 µM,92%
same,residual activity,MAPKAPK5 (human); compound 10.0 µM,90%
same,residual activity,MELK (human); compound 1.0 µM,113%
same,residual activity,MELK (human); compound 10.0 µM,101%
same,residual activity,MINK1 (human); compound 10.0 µM,57%
same,residual activity,MKNK2 (human); compound 1.0 µM,76%
same,residual activity,MKNK2 (human); compound 10.0 µM,99%
same,residual activity,PAK4 (human); compound 1.0 µM,89%
same,residual activity,PAK4 (human); compound 10.0 µM,76%
same,residual activity,PAK7 (human); compound 1.0 µM,104%
same,residual activity,PAK7 (human); compound 10.0 µM,96%
same,residual activity,PIM1 (human); compound 1.0 µM,88%
same,residual activity,PIM1 (human); compound 10.0 µM,44%
same,residual activity,PRKACA (human); compound 1.0 µM,111%
same,residual activity,PRKACA (human); compound 10.0 µM,114%
same,residual activity,RIPK2 (human); compound 1.0 µM,115%
same,residual activity,RIPK2 (human); compound 10.0 µM,95%
same,residual activity,YES1 (human); compound 1.0 µM,113%
same,residual activity,YES1 (human); compound 10.0 µM,103%
Cc1cccc(-c2nn(C(=S)Nc3ccccc3)cc2-c2ccnc3ccccc23)n1,residual activity,AURKB (human); compound 0.1 µM,98%
same,residual activity,AURKB (human); compound 1.0 µM,102%
same,residual activity,BRSK1 (human); compound 0.1 µM,110%
same,residual activity,BRSK1 (human); compound 1.0 µM,95%
same,residual activity,BTK (human); compound 0.1 µM,110%
same,residual activity,BTK (human); compound 1.0 µM,104%
same,residual activity,CAMKK2 (human); compound 0.1 µM,100%
same,residual activity,CAMKK2 (human); compound 1.0 µM,104%
same,residual activity,CSK (human); compound 0.1 µM,97%
same,residual activity,CSK (human); compound 1.0 µM,93%
same,residual activity,CSNK1D (human); compound 0.1 µM,90%
same,residual activity,CSNK1D (human); compound 1.0 µM,46%
same,residual activity,CaMK1 (human); compound 0.1 µM,103%
same,residual activity,CaMK1 (human); compound 1.0 µM,107%
same,residual activity,DYRK1A (human); compound 0.1 µM,109%
same,residual activity,DYRK1A (human); compound 1.0 µM,104%
same,residual activity,DYRK2 (human); compound 0.1 µM,100%
same,residual activity,DYRK2 (human); compound 1.0 µM,95%
same,residual activity,EPHA4 (human); compound 0.1 µM,108%
same,residual activity,EPHA4 (human); compound 1.0 µM,98%
same,residual activity,EPHB2 (human); compound 0.1 µM,113%
same,residual activity,EPHB2 (human); compound 1.0 µM,95%
same,residual activity,EPHB3 (human); compound 0.1 µM,112%
same,residual activity,EPHB3 (human); compound 1.0 µM,104%
same,residual activity,HIPK2 (human); compound 0.1 µM,104%
same,residual activity,HIPK2 (human); compound 1.0 µM,95%
same,residual activity,IGF1R (human); compound 0.1 µM,97%
same,residual activity,IGF1R (human); compound 1.0 µM,103%
same,residual activity,IKBKB (human); compound 0.1 µM,107%
same,residual activity,IKBKB (human); compound 1.0 µM,100%
same,residual activity,IKBKE (human); compound 0.1 µM,112%
same,residual activity,IKBKE (human); compound 1.0 µM,106%
same,residual activity,MAP3K11 (human); compound 0.1 µM,104%
same,residual activity,MAP3K11 (human); compound 1.0 µM,107%
same,residual activity,MAP3K7 TAB1 (human); compound 0.1 µM,99%
same,residual activity,MAP3K7 TAB1 (human); compound 1.0 µM,81%
same,residual activity,MAPK12 (human); compound 0.1 µM,102%
same,residual activity,MAPK12 (human); compound 1.0 µM,88%
same,residual activity,MAPK14 (human); compound 0.1 µM,56%
same,residual activity,MAPK14 (human); compound 1.0 µM,16%
same,residual activity,MAPK15 (human); compound 0.1 µM,108%
same,residual activity,MAPK15 (human); compound 1.0 µM,93%
same,residual activity,MAPK8 (human); compound 0.1 µM,111%
same,residual activity,MAPK8 (human); compound 1.0 µM,101%
same,residual activity,MAPK9 (human); compound 0.1 µM,105%
same,residual activity,MAPK9 (human); compound 1.0 µM,90%
same,residual activity,MAPKAPK2 (human); compound 0.1 µM,117%
same,residual activity,MAPKAPK2 (human); compound 1.0 µM,108%
same,residual activity,MAPKAPK5 (human); compound 0.1 µM,113%
same,residual activity,MAPKAPK5 (human); compound 1.0 µM,99%
same,residual activity,MELK (human); compound 0.1 µM,111%
same,residual activity,MELK (human); compound 1.0 µM,105%
same,residual activity,MINK1 (human); compound 0.1 µM,66%
same,residual activity,MINK1 (human); compound 1.0 µM,13%
same,residual activity,MKNK2 (human); compound 0.1 µM,81%
same,residual activity,MKNK2 (human); compound 1.0 µM,91%
same,residual activity,PAK4 (human); compound 0.1 µM,89%
same,residual activity,PAK4 (human); compound 1.0 µM,93%
same,residual activity,PAK7 (human); compound 0.1 µM,107%
same,residual activity,PAK7 (human); compound 1.0 µM,102%
same,residual activity,PIM1 (human); compound 0.1 µM,105%
same,residual activity,PIM1 (human); compound 1.0 µM,97%
same,residual activity,PRKACA (human); compound 0.1 µM,109%
same,residual activity,PRKACA (human); compound 1.0 µM,99%
same,residual activity,RIPK2 (human); compound 0.1 µM,26%
same,residual activity,RIPK2 (human); compound 1.0 µM,9%
same,residual activity,YES1 (human); compound 0.1 µM,106%
same,residual activity,YES1 (human); compound 1.0 µM,70%
